Test results from the supplement of paper PMC11061612.

Key:
[1] = tested on: L-1236 (Hodgkin's Lymphoma); assay: combination Emax (second highest fraction inhibited in the dose matrix, 72 h); higher = more inhibition; extreme values may be limits of the assay
Outline: (§1)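 Cell lines in DMEM/F12 or RPMI with 10% FBS were plated in 1536-well plates, held 24 hours at 37°C, 5% CO2, then given two-drug dose matrices for 72 hours (DMSO typically 0.2%). Viability was read by CellTiter-Glo 2.0 luminescence and scaled as inhibition from 0 (vehicle wells) to 1 (blank wells). Combination Emax is the second-highest inhibition in the matrix; Bliss excess is observed combination effect minus expected EA + EB − EA·EB, EA and EB being single-agent effects.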

SK-MEL-2 (Melanoma) [2] = assay: as above
Outline: as §1

NB12 (Neuroblastoma) [3] = assay: as above
Outline: as §1

SF539 (Glioblastoma) = assay: as above
Outline: as §1

WM793B (Melanoma) = assay: as above
Outline: as §1

[4] = tested on: HCT-15 (Colorectal Carcinoma); assay: as above
Outline: as §1

[5] = tested on: COLO-680N (Esophageal Squamous Cell Carcinoma); assay: as above
Outline: as §1

[6] = tested on: NCI-H23 (Lung Adenocarcinoma); assay: as above
Outline: as §1

SK-MEL-2 (Melanoma) [7] = assay: Bliss excess, mean over the matrix (fraction); higher = more synergy
Outline: as §1

NB12 (Neuroblastoma) [8] = assay: as above
Outline: as §1
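Wherever Bliss excess, mean over the matrix is given: after 72 h of two-drug dosing.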

| Compound | combination Emax [1] | combination Emax (SK-MEL-2 (Melanoma) [2]) | combination Emax (NB12 (Neuroblastoma) [3]) | combination Emax (SF539 (Glioblastoma)) | combination Emax (WM793B (Melanoma)) | combination Emax [4] | combination Emax [5] | combination Emax [6] | Bliss excess (SK-MEL-2 (Melanoma) [7]) | Bliss excess (NB12 (Neuroblastoma) [8]) |
| --- | --- | --- | --- | --- | --- | --- | --- | --- | --- | --- |
| COc1nnc2ccc(N3CCC(c4ccc(OCCN5CCN(C)C(=O)[C@H]5C)cc4)CC3)nn12 [AZD5153] + Cc1c2c(nn1C)CSCc1cc(n(C)n1)CSc1cc(c3ccccc3c1)OCCCc1c(C(=O)O)n(C)c3c-2c(Cl)ccc13 [AZD5991] (first compound max 1 µM, 7x7, partner max 1 µM) | 1 | 0.984 | 0.942 | 0.638 | 0.688 | 0.75 | 0.37 | 0.997 | -0.0198 | 0.0267 |
| Cc1nc(Nc2ncc(C(=O)Nc3c(C)cccc3Cl)s2)cc(N2CCN(CCO)CC2)n1 [Dasatinib] + CC(=O)Nc1cccc(-n2c(=O)n(C3CC3)c(=O)c3c(Nc4ccc(I)cc4F)n(C)c(=O)c(C)c32)c1 [Trametinib] (first compound max 2 µM, 7x7, partner max 1 µM) | 0.243 | 0.94 | 0.266 | 0.602 | 0.705 | 0.71 | 0.554 | 0.765 | -0.0571 | 0.0319 |
| C=CCn1c(=O)c2cnc(Nc3ccc(N4CCN(C)CC4)cc3)nc2n1-c1cccc(C(C)(C)O)n1 [AZD1775] + C1CN(CCC1(C(=O)N[C@@H](CCO)C2=CC=C(C=C2)Cl)N)C3=NC=NC4=C3C=CN4 [Capivasertib] (first compound max 3 µM, partner max 3 µM) | 0.876 | 0.637 | 0.746 | 0.967 | 0.606 | 0.896 | 0.306 | 0.908 | -0.0472 | -0.0491 |
| COc1nnc2ccc(N3CCC(c4ccc(OCCN5CCN(C)C(=O)[C@H]5C)cc4)CC3)nn12 [AZD5153] + CC1(C)CCC(CN2CCN(c3ccc(C(=O)NS(=O)(=O)c4ccc(NCC5CCOCC5)c([N+](=O)[O-])c4)c(Oc4cnc5[nH]ccc5c4)c3)CC2)=C(c2ccc(Cl)cc2)C1 [Venetoclax] (first compound max 1 µM, 7x7, partner max 1 µM) | 0.997 | 0.519 | 0.971 | 0.604 | 0.523 | 0.724 | 0.344 | 0.651 | -0.0035 | 0.0928 |
| CS(=O)(=O)CCNCc1ccc(-c2ccc3ncnc(Nc4ccc(OCc5cccc(F)c5)c(Cl)c4)c3c2)o1 [Lapatinib] + C[C@@H](Oc1cc(-c2cnn(C3CCNCC3)c2)cnc1N)c1c(Cl)ccc(F)c1Cl [Crizotinib] (first compound max 10 µM, 7x7, partner max 10 µM) | 0.984 | 0.62 | 0.843 | 0.937 | 0.973 | 0.925 | 0.483 | 0.645 | -0.0232 | -0.0622 |
| Cn1cnc2c(F)c(Nc3ccc(Br)cc3Cl)c(C(=O)NOCCO)cc21 [Selumetinib] + C=CCn1c(=O)c2cnc(Nc3ccc(N4CCN(C)CC4)cc3)nc2n1-c1cccc(C(C)(C)O)n1 [AZD1775] (first compound max 10 µM, partner max 1 µM) | 0.956 | 0.831 | 0.674 | 0.972 | 0.534 | 0.712 | 0.181 | 0.915 | 0.0533 | -0.0517 |
| COc1cc2ncnc(Nc3ccc(F)c(Cl)c3)c2cc1OCCCN1CCOCC1 [Gefitinib] + CC(C)n1c(=O)n(C)c2cnc3cc(F)c(-c4ccc(OCCCN5CCCCC5)nc4)cc3c21 [AZD1390] (first compound max 10 µM, 7x7, partner max 0.3 µM) | 0.254 | 0.169 | 0.139 | 0.143 | 0.142 | 0.352 | 0.213 | 0.107 | -0.0348 | -0.0668 |
| COc1nnc2ccc(N3CCC(c4ccc(OCCN5CCN(C)C(=O)[C@H]5C)cc4)CC3)nn12 [AZD5153] + CCN(CCO)CCCOc1ccc2c(Nc3cc(CC(=O)Nc4cccc(F)c4)[nH]n3)ncnc2c1 [AZD2811] (first compound max 1 µM, 7x7, partner max 1 µM) | 0.988 | 0.485 | 0.937 | 0.699 | 0.641 | 0.807 | 0.357 | 0.666 | -0.0912 | 0.0269 |
| CC(=O)c1c(C)c2cnc(Nc3ccc(N4CCNCC4)cn3)nc2n(C2CCCC2)c1=O [Palbociclib] + Cn1cnc2c(F)c(Nc3ccc(Br)cc3Cl)c(C(=O)NOCCO)cc21 [Selumetinib] (first compound max 10 µM, 7x7, partner max 10 µM) | 0.658 | 0.805 | 0.276 | 0.336 | 0.585 | 0.523 | 0.193 | 0.387 | 0.0374 | 0.0177 |
| NC1(C(=O)N[C@@H](CCO)c2ccc(Cl)cc2)CCN(c2ncnc3[nH]ccc23)CC1 [Capivasertib] + COc1nnc2ccc(N3CCC(c4ccc(OCCN5CCN(C)C(=O)[C@H]5C)cc4)CC3)nn12 [AZD5153] (first compound max 10 µM, 7x7, partner max 1 µM) | 1 | 0.578 | 0.985 | 0.707 | 0.616 | 0.717 | 0.276 | 0.773 | -0.0015 | 0.0031 |
| Cn1cnc2c(F)c(Nc3ccc(Br)cc3Cl)c(C(=O)NOCCO)cc21 [Selumetinib] + C[C@@H]1COCCN1C2=NC(=NC(=C2)C3(CC3)[S@](=N)(=O)C)C4=C5C=CNC5=NC=C4 [AZD6738] (first compound max 10 µM, 7x7, partner max 10 µM) | 0.839 | 0.806 | 0.39 | 0.855 | 0.703 | 0.753 | 0.203 | 0.874 | -0.0161 | -0.0545 |
| NC1(C(=O)N[C@@H](CCO)c2ccc(Cl)cc2)CCN(c2ncnc3[nH]ccc23)CC1 [Capivasertib] + CC(C)n1c(=O)n(C)c2cnc3cc(F)c(-c4ccc(OCCCN5CCCCC5)nc4)cc3c21 [AZD1390] (first compound max 10 µM, 7x7, partner max 0.3 µM) | 0.759 | 0.176 | 0.504 | 0.617 | 0.438 | 0.312 | 0.197 | 0.297 | -0.0125 | 0.0009 |
| NC1(C(=O)N[C@@H](CCO)c2ccc(Cl)cc2)CCN(c2ncnc3[nH]ccc23)CC1 [Capivasertib] + CCN(CCO)CCCOc1ccc2c(Nc3cc(CC(=O)Nc4cccc(F)c4)[nH]n3)ncnc2c1 [AZD2811] (first compound max 10 µM, 7x7, partner max 1 µM) | 0.792 | 0.0759 | 0.783 | 0.723 | 0.527 | 0.394 | 0.195 | 0.387 | -0.0383 | -0.0279 |
| C[C@@H](c1ccc2nccn2c1)n1nnc2ncc(-c3cnn(C)c3)nc21 [Savolitinib] + Cc1c2c(nn1C)CSCc1cc(n(C)n1)CSc1cc(c3ccccc3c1)OCCCc1c(C(=O)O)n(C)c3c-2c(Cl)ccc13 [AZD5991] (first compound max 1 µM, 7x7, partner max 1 µM) | 0.668 | 0.901 | 0.219 | 0.21 | 0.168 | 0.152 | 0.183 | 0.915 | -0.023 | -0.0075 |
| COc1nnc2ccc(N3CCC(c4ccc(OCCN5CCN(C)C(=O)[C@H]5C)cc4)CC3)nn12 [AZD5153] + C[C@@H]1COCCN1C2=NC(=NC(=C2)C3(CC3)[S@](=N)(=O)C)C4=C5C=CNC5=NC=C4 [AZD6738] (first compound max 1 µM, 7x7, partner max 10 µM) | 0.998 | 0.693 | 0.958 | 0.882 | 0.827 | 0.858 | 0.383 | 1 | 0.0037 | 0.0067 |
| CN(C)CCCOc1ccc(-c2ccc3ncc4c(c3c2)n(C2CCOCC2)c(=O)n4C)cn1 [AZD0156] + O=C(c1cc(Cc2n[nH]c(=O)c3ccccc23)ccc1F)N1CCN(C(=O)C2CC2)CC1 [Olaparib] (first compound max 3 µM, partner max 3 µM) | 0.326 | 0.0599 | 0.363 | 0.501 | 0.197 | 0.378 | 0.16 | 0.117 | -0.045 | 0.0534 |
| COc1nnc2ccc(N3CCC(c4ccc(OCCN5CCN(C)C(=O)[C@H]5C)cc4)CC3)nn12 [AZD5153] + Cn1cnc2c(F)c(Nc3ccc(Br)cc3Cl)c(C(=O)NOCCO)cc21 [Selumetinib] (first compound max 1 µM, 7x7, partner max 10 µM) | 1 | 0.926 | 0.799 | 0.653 | 0.786 | 0.819 | 0.378 | 0.852 | -0.0349 | -0.0428 |
| C[C@@H](c1ccc2nccn2c1)n1nnc2ncc(-c3cnn(C)c3)nc21 [Savolitinib] + CC1(C)CCC(CN2CCN(c3ccc(C(=O)NS(=O)(=O)c4ccc(NCC5CCOCC5)c([N+](=O)[O-])c4)c(Oc4cnc5[nH]ccc5c4)c3)CC2)=C(c2ccc(Cl)cc2)C1 [Venetoclax] (first compound max 1 µM, 7x7, partner max 1 µM) | 0.416 | 0.14 | 0.641 | 0.161 | 0.137 | 0.12 | 0.211 | 0.205 | -0.0295 | -0.0062 |
| COc1nnc2ccc(N3CCC(c4ccc(OCCN5CCN(C)C(=O)[C@H]5C)cc4)CC3)nn12 [AZD5153] + C=CCn1c(=O)c2cnc(Nc3ccc(N4CCN(C)CC4)cc3)nc2n1-c1cccc(C(C)(C)O)n1 [AZD1775] (first compound max 1 µM, partner max 1 µM) | 0.999 | 0.635 | 0.958 | 0.944 | 0.636 | 0.739 | 0.353 | 0.963 | -0.116 | -0.0313 |
